Measured values from US9555021B2, “Pharmaceutical compositions comprising (3-(1-(1H-imidazol-4-yl)ethyl)-2-methylphenyl)methanol” (Allergan, Inc., priority 2009, dated 2017).

What was measured:
[1] = molecular target: T1, alpha-2B adrenergic receptor (Homo sapiens, UniProt P18089); assay: FLIPR assay (intracellular calcium), alpha-2B adrenergic receptor; type: cell-based; conditions: for alpha-2B activity in words (agonist/antagonist): Table 2; for α-2B relative efficacy as compared to norepinephrine: agonism, value in parenthesis; for EC50: first line of cell, unit inferred, compounds tested at 0.64 nM-10,000 nM, read-out: α-2B agonism EC50
T1 construct: expressed in transfected cells
T1 sequence (P18089 1-450): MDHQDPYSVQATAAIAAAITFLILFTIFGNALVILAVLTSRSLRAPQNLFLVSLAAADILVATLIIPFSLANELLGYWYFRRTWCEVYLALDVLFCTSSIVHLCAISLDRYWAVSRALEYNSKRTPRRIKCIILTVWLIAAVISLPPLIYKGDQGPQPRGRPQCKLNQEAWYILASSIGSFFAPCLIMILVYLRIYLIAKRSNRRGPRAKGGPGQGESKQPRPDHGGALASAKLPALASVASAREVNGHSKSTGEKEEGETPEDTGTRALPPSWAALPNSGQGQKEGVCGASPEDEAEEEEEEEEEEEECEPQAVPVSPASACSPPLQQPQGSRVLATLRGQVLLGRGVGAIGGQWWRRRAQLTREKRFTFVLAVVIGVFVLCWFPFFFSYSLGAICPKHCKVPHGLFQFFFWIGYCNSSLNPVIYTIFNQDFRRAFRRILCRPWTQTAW
Experimental: (§1) Compounds of the invention were evaluated in a FLIPR assay in order to determine their specificity for five alpha adrenergic receptors. The FLIPR assay measures release of intracellular calcium in response to receptor activation. Cells are preloaded with a calcium sensitive dye that fluoresces in response to calcium. Receptors that activate the G protein, Gq, elicit the response. Alpha adrenergic receptors, which normally couple to Gi, trigger the increase in intracellular calcium when coexpressed with a hybrid Gq protein containing a Gi receptor recognition domain, designated Gq/i5 (Conklin et al., Nature 363:274-6 (1993)) or with the promiscuous G protein Ga16.
(§2) The assay was performed essentially as follows. HEK 293 cells stably expressing an alpha-2 receptor and either the chimeric G-protein Gqi5 or the promiscuous G protein G16 were plated in poly-D-lysine coated 384-well plates at 20,000-25,000 cells per well and grown overnight in DMEM supplemented with 10% FBS. Cells were washed twice with HBSS/HEPES Buffer (1× Hanks Buffered Salt Solution, 20 mM HEPES, pH 7.4) prior to the addition of Fluo-4-AM (4 μM Fluo-4-AM, 0.04% pluronic acid in HBSS/HEPES Buffer), a calcium-sensitive dye. Cells were loaded with dye for 60 minutes at 37° C., then washed 4 times with HBSS/HEPES Buffer. The reaction was initiated by the addition of the appropriate dilutions of compounds (final concentration between 0.64 nM-10,000 nM) and the transient calcium signal captured. The peak height of the calcium curve was determined and utilized for calculation of EC50 and efficacy using ActivityBase.

[2] = molecular target: T2, alpha-1A adrenergic receptor (Homo sapiens, UniProt P35348); assay: FLIPR assay (intracellular calcium), alpha-1A adrenergic receptor; type: cell-based; conditions: for EC50: first line of cell, HEK 293 cells, unit inferred, compounds tested at 0.64 nM-10,000 nM, read-out: α-1A agonism EC50; for alpha-1A activity in words (agonist/antagonist): Table 2; for α-1A relative efficacy as compared to norepinephrine: agonism
T2 sequence (P35348 1-466): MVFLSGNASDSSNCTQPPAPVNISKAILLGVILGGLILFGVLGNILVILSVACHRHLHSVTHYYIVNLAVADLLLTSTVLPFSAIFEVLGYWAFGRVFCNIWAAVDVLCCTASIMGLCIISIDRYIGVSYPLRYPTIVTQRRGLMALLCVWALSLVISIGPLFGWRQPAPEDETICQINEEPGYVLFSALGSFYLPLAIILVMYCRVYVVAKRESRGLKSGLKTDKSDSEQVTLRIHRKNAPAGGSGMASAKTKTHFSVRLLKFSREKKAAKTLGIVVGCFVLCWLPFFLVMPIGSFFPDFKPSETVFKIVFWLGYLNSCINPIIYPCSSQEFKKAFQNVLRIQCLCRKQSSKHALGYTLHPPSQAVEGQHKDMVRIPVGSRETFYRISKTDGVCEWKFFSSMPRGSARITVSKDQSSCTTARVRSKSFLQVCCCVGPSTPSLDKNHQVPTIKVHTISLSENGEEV
Experimental: as §1, §2

[3] = molecular target: T3, alpha-2C adrenergic receptor (Homo sapiens, UniProt P18825); assay: FLIPR assay (intracellular calcium), alpha-2C adrenergic receptor; type: cell-based; conditions: for alpha-2C activity in words (agonist/antagonist): Table 2; for α-2C relative efficacy as compared to norepinephrine: agonism, value in parenthesis; for EC50: first line of cell, unit inferred, compounds tested at 0.64 nM-10,000 nM, read-out: α-2C agonism EC50
T3 construct: expressed in transfected cells
T3 sequence (P18825 1-462): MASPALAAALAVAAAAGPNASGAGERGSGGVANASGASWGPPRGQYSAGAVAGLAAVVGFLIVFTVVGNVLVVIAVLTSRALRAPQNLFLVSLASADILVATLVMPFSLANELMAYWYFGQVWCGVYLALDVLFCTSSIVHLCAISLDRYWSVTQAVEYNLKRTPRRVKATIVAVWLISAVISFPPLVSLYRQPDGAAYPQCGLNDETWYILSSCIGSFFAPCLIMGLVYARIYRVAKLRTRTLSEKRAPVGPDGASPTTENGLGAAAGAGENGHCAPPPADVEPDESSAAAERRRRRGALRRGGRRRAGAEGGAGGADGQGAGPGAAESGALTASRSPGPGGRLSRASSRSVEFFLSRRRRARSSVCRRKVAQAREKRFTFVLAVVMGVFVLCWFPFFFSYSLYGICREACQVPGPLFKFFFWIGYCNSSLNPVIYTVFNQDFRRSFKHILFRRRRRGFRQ
Experimental: as §1, §2

[4] = molecular target: T4, alpha-1B adrenergic receptor (Homo sapiens, UniProt P35368); assay: FLIPR assay (intracellular calcium), alpha-1B adrenergic receptor; type: cell-based; conditions: unit inferred; for EC50: first line of cell, compounds tested at 0.64 nM-10,000 nM, read-out: α-1B agonism EC50; for IC50: second line of cell, read-out: α-1B antagonism IC50
T4 sequence (P35368 1-520): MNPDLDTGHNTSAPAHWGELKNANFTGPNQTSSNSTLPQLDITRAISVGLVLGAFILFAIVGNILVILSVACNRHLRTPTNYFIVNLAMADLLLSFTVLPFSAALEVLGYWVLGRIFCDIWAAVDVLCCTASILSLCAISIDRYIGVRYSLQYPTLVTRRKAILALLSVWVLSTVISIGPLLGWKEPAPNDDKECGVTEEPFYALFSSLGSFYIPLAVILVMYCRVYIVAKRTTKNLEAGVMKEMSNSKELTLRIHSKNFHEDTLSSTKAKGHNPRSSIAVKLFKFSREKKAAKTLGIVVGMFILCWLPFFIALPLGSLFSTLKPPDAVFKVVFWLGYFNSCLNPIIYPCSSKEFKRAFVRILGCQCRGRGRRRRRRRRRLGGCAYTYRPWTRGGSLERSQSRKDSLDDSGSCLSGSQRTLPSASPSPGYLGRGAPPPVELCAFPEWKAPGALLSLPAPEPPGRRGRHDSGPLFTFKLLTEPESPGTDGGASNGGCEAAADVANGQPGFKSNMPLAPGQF
Experimental: as §1, §2

[5] = molecular target: T5, alpha-2A adrenergic receptor (Homo sapiens, UniProt P08913); assay: FLIPR assay (intracellular calcium), alpha-2A adrenergic receptor; type: cell-based; conditions: for alpha-2A activity in words (agonist/antagonist): Table 2; for EC50: first line of cell, compounds tested at 0.64 nM-10,000 nM, read-out: α-2A agonism EC50; for α-2A relative efficacy as compared to norepinephrine: agonism
T5 construct: expressed in transfected cells
T5 sequence (P08913 1-465): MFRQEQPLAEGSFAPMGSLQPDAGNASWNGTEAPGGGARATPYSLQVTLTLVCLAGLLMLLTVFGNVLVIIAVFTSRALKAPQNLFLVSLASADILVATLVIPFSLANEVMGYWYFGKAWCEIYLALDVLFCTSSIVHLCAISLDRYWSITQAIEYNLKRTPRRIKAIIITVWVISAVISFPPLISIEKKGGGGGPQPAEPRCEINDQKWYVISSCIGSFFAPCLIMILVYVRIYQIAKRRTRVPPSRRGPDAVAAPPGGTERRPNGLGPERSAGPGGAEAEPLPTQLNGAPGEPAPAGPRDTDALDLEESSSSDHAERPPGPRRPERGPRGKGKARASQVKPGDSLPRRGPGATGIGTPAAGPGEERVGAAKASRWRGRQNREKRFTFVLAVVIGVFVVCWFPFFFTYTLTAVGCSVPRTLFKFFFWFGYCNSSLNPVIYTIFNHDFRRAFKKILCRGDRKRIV
Experimental: as §1, §2

[6] = test system: mice; conditions: as described in Gil et al., Br J Pharmacol 153: 769-74 (2008); cited from earlier work
[7] = test system: mice; assay: Locomotor activity (sedation); type: in vivo; conditions: 30 minutes after dosing
[8] = FIG. 3 / FIG. 4
Experimental: The tactile hypersensitivity of 5-6 mice (weighing approx. 25 g) per group was scored every five minutes between 15 and 50 minutes following intraperitoneal dosing with 300 ng/kg (in a 1 mL/kg volume) sulprostone (Cayman Chemical Company, Ann Arbor, Mich.). Compound I or vehicle was administered intraperitoneally 15 minutes prior to sulprostone.
(§3) Tactile hypersensitivity was quantified by scoring the response of mice to light stroking of their flanks with a small paintbrush, which is not normally painful.
The computer analyses this movement and records total activity. Locomotor activity relative to vehicle-treated animals was expressed as a percentage; percentage sedation was calculated as 100% minus the percent locomotor activity. Statistical calculations of significance for in vivo studies were done using a two-tailed Student's t-test.

[9] = test system: mice; assay: Sulprostone-induced tactile hypersensitivity; type: in vivo; conditions: 0.3 mg/kg intraperitoneally 15 minutes prior to sulprostone
Experimental: The tactile hypersensitivity of 5-6 mice (weighing approx. 25 g) per group was scored every five minutes between 15 and 50 minutes following intraperitoneal dosing with 300 ng/kg (in a 1 mL/kg volume) sulprostone (Cayman Chemical Company, Ann Arbor, Mich.).
as §3

[10] = second line of cell, value in parenthesis

| SMILES | alpha-2B activity in words (agonist/antagonist) [1] | α-2B relative efficacy as compared to norepinephrine [1] | EC50 [1] [nM] | EC50 [2] [nM] | alpha-2C activity in words (agonist/antagonist) [3] | α-2C relative efficacy as compared to norepinephrine [3] | EC50 [3] [nM] | EC50 [4] [nM] | IC50 [4] [nM] | alpha-2A activity in words (agonist/antagonist) [5] | EC50 ([5]; unit inferred) [nM] | alpha-1A activity in words (agonist/antagonist) [2] | α-1A relative efficacy as compared to norepinephrine ([2]; value in parenthesis) | α-2A relative efficacy as compared to norepinephrine ([5]; value in parenthesis) | activity in sulprostone-induced tactile hypersensitivity model [6] | margin of safety for pain reduction vs. sedation [8] | also measured |
| --- | --- | --- | --- | --- | --- | --- | --- | --- | --- | --- | --- | --- | --- | --- | --- | --- | --- |
| Cc1c(CO)cccc1[C@@H](C)c1c[nH]cn1 [Compound II, (R)-(3-(1-(1H-imidazol-4-yl)ethyl)-2-methylphenyl)methanol] | agonist | (.68) | 52.8 | > 10000 | agonist | (.64) | 171 | > 10000 | > 8300 | antagonist | > 10000 |  |  |  |  |  | α-1A percent antagonism [2, 10]: (39%); α-2A percent antagonism [5, 10]: (96%); IC50 ([5]; second line of cell, unit inferred, read-out: α-2A antagonism IC50): 144 nM |
| Cc1c(CO)cccc1[C@H](C)c1c[nH]cn1 [Compound III, (S)-(3-(1-(1H-imidazol-4-yl)ethyl)-2-methylphenyl)methanol] | alpha-2 pan agonist | (.93) | 3 | 445 | alpha-2 pan agonist | (1) | 8 | > 8300 |  | alpha-2 pan agonist | 72 | some alpha-1A agonist activity | (.76) | (.9) |  |  |  |
| NCC1(CC(=O)O)CCCCC1 [gabapentin] |  |  |  |  |  |  |  |  |  |  |  |  |  |  | active |  |  |
| Cc1c(CO)cccc1C(C)c1c[nH]cn1 (racemic) [Compound I, (3-(1-(1H-imidazol-4-yl)ethyl)-2-methylphenyl)methanol] | alpha-2 pan agonist | (.94) | 5.5 | 1630 | alpha-2 pan agonist | (.98) | 15.7 | > 10000 | > 8300 | alpha-2 pan agonist | 53.7 | some alpha-1A agonist activity | (.69) | (.75) |  | > 10 fold | sedation (locomotor activity) ([7]; 1 mg/kg intraperitoneal): minimally sedating; sedation (locomotor activity) ([7]; 3 mg/kg intraperitoneal): highly sedating; reduction in sulprostone induced hypersensitivity [9]: back to control levels |
| CN(C)CCC=C1c2ccccc2CCc2ccccc21 [amitriptyline] |  |  |  |  |  |  |  |  |  |  |  |  |  |  | active |  |  |
| Cc1cccc([C@H](C)c2cnc[nH]2)c1C [dexmedetomidine] |  |  |  |  |  |  |  |  |  |  |  |  |  |  |  | no margin of safety |  |
